Patent publication US20220330549A1, “USE OF N-BENZYLBENZAMIDE-BASED COMPOUND AS HERBICIDE” (Northwest A&F University, priority 2020, published 2022)

Legend:
Format in all cases: in vivo
Amaranthus retroflexus [1] = assay: Herbicidal activity test for indoor pre-emergence soil treatment; design: key: 1-9 levels; higher = more weed remaining vs blank control; details: 150 g a.i./ha, visual inspection 21 days after treatment
In short: (§1)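 Compounds were formulated as 10% emulsifiable concentrates and sprayed onto the soil 24 h after sowing, at 150 g(a.i.)/ha. Soil was sandy loam (≤2% organic matter), with seeds under 0.5–2.0 cm cover, per NY/T 1155.3-2006. Visual 1–9 ratings relative to blank control were made after 21 days.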

Digitaria sanguinalis [2] = assay: as above; design: key: 1-9 levels; higher = more weed remaining vs blank control; details: 150 g a.i./ha, visual inspection 21 days after treatment
In short: as §1

Humulus scandens [3] = assay: Herbicidal activity test for indoor post-emergence spraying on stems and leaves; design: key: grade level by weed remaining vs blank control, e.g. 5 = 10.1-15%; details: 150 g a.i./ha, visual inspection 21 days after treatment
In short: (§2)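 Visual inspection at 21 days after treatment gave a level rating, each level defined as a percentage band of the weed remaining in the blank control area. Plants were sprayed on stems and leaves after emergence, following NY/T 1155.4-2006.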

Amaranthus retroflexus [4] = assay: as above; design: key: grade level by weed remaining vs blank control, e.g. 5 = 10.1-15%; details: 150 g a.i./ha, visual inspection 21 days after treatment
In short: as §2

Digitaria sanguinalis [5] = assay: as above; design: key: grade level by weed remaining vs blank control, e.g. 5 = 10.1-15%; details: 150 g a.i./ha, visual inspection 21 days after treatment
In short: as §2

Barnyard grass [6] = assay: as above; design: key: grade level by weed remaining vs blank control, e.g. 5 = 10.1-15%; details: 150 g a.i./ha, visual inspection 21 days after treatment
In short: as §2

green bristlegrass [7] = assay: as above; design: key: grade level by weed remaining vs blank control, e.g. 5 = 10.1-15%; details: 150 g a.i./ha, visual inspection 21 days after treatment
In short: as §2

Piemarker [8] = assay: as above; design: key: grade level by weed remaining vs blank control, e.g. 5 = 10.1-15%; details: 150 g a.i./ha, visual inspection 21 days after treatment
In short: as §2

nutgrass flatsedge = assay: Field test for weed control in a corn field; details: 150 g a.i./ha, after treatment
In short: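 A corn field efficacy trial following GB/T 17980.42-2000 assessed post-emergence control of nutgrass flatsedge. Test compounds were formulated as 10% emulsifiable concentrates, diluted in water, and sprayed at 150 g(a.i.)/ha when the corn had 2 to 5 leaves. Each treatment had 4 replicates on 20 m^2 plots. Herbicidal activity was graded on a 1-9 scale by damage symptoms and severity.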

Amaranthus retroflexus [9] = assay: Field test for weed control in a corn field; details: 150 g a.i./ha, 30 days after treatment
In short: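 Field efficacy trial in a corn field following GB/T 17980.42-2000. Test compounds were formulated as 10% emulsifiable concentrates, diluted in water and sprayed post-emergence when corn had 2 to 5 leaves. Each treatment covered 20 m^2 with 4 replicates. A 25% mesotrione oil dispersion served as control. Damage to Amaranthus retroflexus was rated on a 1-9 scale against untreated blank plots.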

Digitaria sanguinalis [10] = assay: Field test for weed control in a corn field; details: 150 g a.i./ha, after treatment
In short: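 Field trial in a corn field following GB/T 17980.42-2000. Test compounds were formulated as 10% emulsifiable concentrates, diluted in water and sprayed post-emergence at 150 g(a.i.)/ha when corn had 2 to 5 leaves, with 4 replicates on 20 m^2 plots. Control of Digitaria sanguinalis was scored on a 1-9 scale based on weed damage relative to the untreated blank area.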

Convolvulus arvensis = assay: Field test for weed control in a corn field; details: 150 g a.i./ha, after treatment
In short: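 Field trial of weed control against Convolvulus arvensis in corn, run following GB/T 17980.42-2000. Test agents were formulated as 10% emulsifiable concentrates and sprayed in water at 150 g(a.i.)/ha when corn plants had 2 to 5 leaves. Each treatment was replicated 4 times on 20 m^2 plots, and 25% mesotrione oil dispersion served as the control agent.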

Acalypha australis = assay: Field test for weed control in a corn field; details: 150 g a.i./ha, after treatment
In short: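 Post-emergence field trial in a corn field following GB/T 17980.42-2000. Test compounds were formulated as 10% emulsifiable concentrates, diluted in water, and sprayed at 150 g(a.i.)/ha when corn had 2 to 5 leaves, with 4 replicates on 20 m^2 plots. Mesotrione 25% oil dispersion served as the control agent. Weed control was scored on a 1-9 scale.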

Barnyard grass [11] = assay: Field test for weed control in a corn field; details: 150 g a.i./ha, 30 days after treatment
In short: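 Corn-field efficacy trial following GB/T 17980.42-2000. Test compounds were formulated as 10% emulsifiable concentrates, diluted in water and sprayed post-emergence at 150 g(a.i.)/ha when corn had 2 to 5 leaves. Each treatment was replicated 4 times on 20 m^2 plots. Barnyard grass control was rated on a 1-9 damage scale.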

green bristlegrass [12] = assay: Field test for weed control in a corn field; details: 150 g a.i./ha, after treatment
In short: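 Post-emergence weed control was tested in a corn field following GB/T 17980.42-2000. When the corn had 2 leaves to 5 leaves after sowing, 10% emulsifiable concentrates diluted in water were sprayed at 150 g(a.i.)/ha on 20 m^2 plots, four replicates per treatment. Effects on green bristlegrass were scored on a 1-9 damage scale relative to the blank control area.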

goosegrass = assay: Field test for weed control in a corn field; details: 150 g a.i./ha, after treatment
In short: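 Weed control efficacy against goosegrass was tested in a corn field following GB/T 17980.42-2000. Compounds formulated as 10% emulsifiable concentrates were diluted in water and sprayed post-emergence at 150 g(a.i.)/ha when corn had 2 to 5 leaves, with 4 replicates of 20 m^2 plots. Herbicidal activity was rated on a 1-9 scale by damage symptoms and severity.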

Chenopodium album = assay: Field test for weed control in a corn field; details: 150 g a.i./ha, after treatment
In short: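 A corn-field efficacy trial following GB/T 17980.42-2000 tested post-emergence control of Chenopodium album. Test compounds formulated as 10% emulsifiable concentrates were diluted in water and sprayed at 150 g(a.i.)/ha when the corn had 2 leaves to 5 leaves, on 20 m^2 plots with 4 replicates. Herbicidal activity was rated on a 1-9 scale by damage symptoms and severity.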

Portulaca oleracea = assay: Field test for weed control in a corn field; details: 150 g a.i./ha, after treatment
In short: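 Field efficacy trial in corn following GB/T 17980.42-2000. Test compounds were prepared as 10% emulsifiable concentrates, diluted in water, and sprayed at 150 g(a.i.)/ha when corn had 2 to 5 leaves after sowing. Plots were 20 m^2 with 4 replicates per treatment. Herbicidal activity was scored on a 1-9 scale from weed damage symptoms and severity.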

Solanum nigrum = assay: Field test for weed control in a corn field; details: 150 g a.i./ha, 30 days after treatment
In short: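 Post-emergence weed control was tested in a corn field following GB/T 17980.42-2000. Compounds were made into 10% emulsifiable concentrates, diluted in water and sprayed at 150 g(a.i.)/ha when corn had 2 to 5 leaves after sowing, in 20 m^2 plots with 4 replicates. Effects on Solanum nigrum were graded on a 1-9 scale relative to the blank control area.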

Barnyard grass [13] = assay: Herbicidal activity test for indoor pre-emergence soil treatment; design: key: level 1-9; higher = more weed remaining vs blank control; details: 150 g a.i./ha, visual inspection 21 days after treatment
In short: as §1

green bristlegrass [14] = assay: as above; design: key: level 1-9; higher = more weed remaining vs blank control; details: 150 g a.i./ha, visual inspection 21 days after treatment
In short: as §1

Piemarker [15] = assay: as above; design: key: level 1-9; higher = more weed remaining vs blank control; details: 150 g a.i./ha, visual inspection 21 days after treatment
In short: as §1

Gramineae = assay: Post-emergence herbicidal activity test in a paddy field; design: key: level scale; higher level = more weed left vs blank control; details: 150 g a.i./ha (penoxsulam control 250 g(a.i.)/h)
In short: (§3)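 Efficacy was visually estimated 15 and 30 days after spraying, grading weed coverage relative to an untreated neighbouring plot (level 2 = 0 to 2.5%, level 9 = 67.6 to 100%). Treatments were 150 g(a.i.)/ha from 10% emulsifiable concentrates applied at the 4-5 leaf rice stage, four repeats of 50 m^2 each.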

Cyperaceae = assay: as above; design: key: level scale; higher level = more weed left vs blank control; details: 150 g a.i./ha (penoxsulam control 250 g(a.i.)/h)
In short: as §3

Broadleaf weed = assay: as above; design: key: level scale; higher level = more weed left vs blank control; details: 150 g a.i./ha (penoxsulam control 250 g(a.i.)/h)
In short: as §3

Humulus scandens [16] = assay: Herbicidal activity test for indoor pre-emergence soil treatment; details: 150 g a.i./ha, visual inspection 21 days after treatment
In short: as §1

Cc1cccc(C(=O)NCc2ccc(F)cc2)c1 [Compound B02]
Herbicidal Activity Amaranthus retroflexus (Amaranthus retroflexus [1]): 1
Herbicidal Activity Digitaria sanguinalis (Digitaria sanguinalis [2]): 2 (equivalent to 0 to 2.5% of the weed in the blank control area)
Herbicidal Activity Humulus scandens (Humulus scandens [3]): 1
Herbicidal Activity Amaranthus retroflexus (Amaranthus retroflexus [4]): 1
Herbicidal Activity Digitaria sanguinalis (Digitaria sanguinalis [5]): 1
Herbicidal Activity Barnyard grass (Barnyard grass [6]): 1
Herbicidal Activity Green bristlegrass (green bristlegrass [7]): 1
Herbicidal Activity Piemarker (Piemarker [8]): 1
Post-emergence weed control effect, Nutgrass flatsedge (nutgrass flatsedge): 2 (equivalent to 0 to 2.5% of the weed in the blank control area)
Post-emergence weed control effect, Amaranthus retroflexus (Amaranthus retroflexus [9]): 1
Post-emergence weed control effect, Digitaria sanguinalis (Digitaria sanguinalis [10]): 2 (equivalent to 0 to 2.5% of the weed in the blank control area)
Post-emergence weed control effect, Convolvulus arvensis (Convolvulus arvensis): 1
Post-emergence weed control effect, Acalypha australis (Acalypha australis): 2 (equivalent to 0 to 2.5% of the weed in the blank control area)
Post-emergence weed control effect, Barnyard grass (Barnyard grass [11]): 1
Post-emergence weed control effect, Green bristlegrass (green bristlegrass [12]): 1
Post-emergence weed control effect, Goose grass (goosegrass): 2 (equivalent to 0 to 2.5% of the weed in the blank control area)
Post-emergence weed control effect, Chenopodium album (Chenopodium album): 1
Post-emergence weed control effect, Portulaca oleracea (Portulaca oleracea): 1
Post-emergence weed control effect, Solanum nigrum (Solanum nigrum): 2 (equivalent to 0 to 2.5% of the weed in the blank control area)
Herbicidal Activity Barnyard grass (Barnyard grass [13]): 1
Herbicidal Activity Green bristlegrass (green bristlegrass [14]): 1
Herbicidal Activity Piemarker (Piemarker [15]): 2 (equivalent to 0 to 2.5% of the weed in the blank control area)
Herbicidal activity 15 days after treatment Gramineae (Gramineae): 2 (equivalent to 0 to 2.5% of the weed in the blank control area)
Herbicidal activity 30 days after treatment Gramineae (Gramineae): 2 (equivalent to 0 to 2.5% of the weed in the blank control area)
Herbicidal activity 15 days after treatment Cyperaceae (Cyperaceae): 1
Herbicidal activity 30 days after treatment Cyperaceae (Cyperaceae): 1
Herbicidal activity 15 days after treatment Broadleaf weed (Broadleaf weed): 1
Herbicidal activity 30 days after treatment Broadleaf weed (Broadleaf weed): 1
Herbicidal Activity Humulus scandens (Humulus scandens [16]): 2 (equivalent to 0 to 2.5% of the weed in the blank control area)

COc1ncccc1C(=O)NCc1cccc(Cl)c1 [Compound A91]
Herbicidal Activity Amaranthus retroflexus (Amaranthus retroflexus [1]): 1
Herbicidal Activity Digitaria sanguinalis (Digitaria sanguinalis [2]): 2 (equivalent to 0 to 2.5% of the weed in the blank control area)
Herbicidal Activity Humulus scandens (Humulus scandens [3]): 1
Herbicidal Activity Amaranthus retroflexus (Amaranthus retroflexus [4]): 1
Herbicidal Activity Digitaria sanguinalis (Digitaria sanguinalis [5]): 1
Herbicidal Activity Barnyard grass (Barnyard grass [6]): 1
Herbicidal Activity Green bristlegrass (green bristlegrass [7]): 1
Herbicidal Activity Piemarker (Piemarker [8]): 1
Post-emergence weed control effect, Nutgrass flatsedge (nutgrass flatsedge): 2 (equivalent to 0 to 2.5% of the weed in the blank control area)
Post-emergence weed control effect, Amaranthus retroflexus (Amaranthus retroflexus [9]): 1
Post-emergence weed control effect, Digitaria sanguinalis (Digitaria sanguinalis [10]): 2 (equivalent to 0 to 2.5% of the weed in the blank control area)
Post-emergence weed control effect, Convolvulus arvensis (Convolvulus arvensis): 1
Post-emergence weed control effect, Acalypha australis (Acalypha australis): 2 (equivalent to 0 to 2.5% of the weed in the blank control area)
Post-emergence weed control effect, Barnyard grass (Barnyard grass [11]): 1
Post-emergence weed control effect, Green bristlegrass (green bristlegrass [12]): 2 (equivalent to 0 to 2.5% of the weed in the blank control area)
Post-emergence weed control effect, Goose grass (goosegrass): 2 (equivalent to 0 to 2.5% of the weed in the blank control area)
Post-emergence weed control effect, Chenopodium album (Chenopodium album): 1
Post-emergence weed control effect, Portulaca oleracea (Portulaca oleracea): 1
Post-emergence weed control effect, Solanum nigrum (Solanum nigrum): 2 (equivalent to 0 to 2.5% of the weed in the blank control area)
Herbicidal Activity Barnyard grass (Barnyard grass [13]): 1
Herbicidal Activity Green bristlegrass (green bristlegrass [14]): 1
Herbicidal Activity Piemarker (Piemarker [15]): 1
Herbicidal activity 15 days after treatment Gramineae (Gramineae): 2 (equivalent to 0 to 2.5% of the weed in the blank control area)
Herbicidal activity 30 days after treatment Gramineae (Gramineae): 2 (equivalent to 0 to 2.5% of the weed in the blank control area)
Herbicidal activity 15 days after treatment Cyperaceae (Cyperaceae): 1
Herbicidal activity 30 days after treatment Cyperaceae (Cyperaceae): 1
Herbicidal activity 15 days after treatment Broadleaf weed (Broadleaf weed): 1
Herbicidal activity 30 days after treatment Broadleaf weed (Broadleaf weed): 1
Herbicidal Activity Humulus scandens (Humulus scandens [16]): 2 (equivalent to 0 to 2.5% of the weed in the blank control area)
